We go through 5 compounds from BindingDB's records for doi:10.1021/jm070336k (University of Mississippi, 2007).

pIC50: −log10 of the molar value. Bounds are passed on as bounds.

The target of one experiment is L-lactate dehydrogenase (Plasmodium falciparum (isolate CDC / Honduras), UniProt Q27743). Kind of experiment: Lactate Dehydrogenase Inhibition Assay. The note with it: pH 7; 25 °C.
Chain of L-lactate dehydrogenase (Q27743 whole entry): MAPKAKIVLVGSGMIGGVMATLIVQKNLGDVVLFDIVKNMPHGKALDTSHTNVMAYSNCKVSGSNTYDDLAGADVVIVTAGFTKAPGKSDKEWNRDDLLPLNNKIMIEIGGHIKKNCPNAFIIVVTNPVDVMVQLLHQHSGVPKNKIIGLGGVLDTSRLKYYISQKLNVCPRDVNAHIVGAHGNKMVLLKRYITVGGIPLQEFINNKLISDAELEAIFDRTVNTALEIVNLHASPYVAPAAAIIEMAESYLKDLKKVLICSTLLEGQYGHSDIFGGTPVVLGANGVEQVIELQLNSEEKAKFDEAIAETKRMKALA
Take `O=C(O)C(=O)Nc1ccc(CCOc2cc(O)c3c(=O)cc(C(=O)O)oc3c2)cc1` [7-{2-[4-(formamidoformic acid)phenyl]ethoxy}-5-hydroxy-4-oxo-4H-chromene-2-carboxylic acid]: the pIC50 was less than 3.62.

The target in the next experiment is L-lactate dehydrogenase B chain (Bos taurus, UniProt Q5E9B1). Kind of experiment: Lactate Dehydrogenase Inhibition Assay. The note with it: pH 7; 25 °C.
Chain of L-lactate dehydrogenase B chain (Q5E9B1 whole entry): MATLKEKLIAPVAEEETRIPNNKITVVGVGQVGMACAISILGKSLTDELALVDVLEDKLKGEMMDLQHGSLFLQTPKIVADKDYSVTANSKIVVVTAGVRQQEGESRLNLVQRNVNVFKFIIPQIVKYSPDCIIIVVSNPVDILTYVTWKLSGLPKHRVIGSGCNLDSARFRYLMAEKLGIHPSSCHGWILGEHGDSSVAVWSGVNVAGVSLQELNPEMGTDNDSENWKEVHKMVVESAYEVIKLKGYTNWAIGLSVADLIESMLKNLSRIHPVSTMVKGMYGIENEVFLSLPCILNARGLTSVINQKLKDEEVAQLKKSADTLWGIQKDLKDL
In turn, `COc1ccc(CNC(=O)c2cc(=O)c3c(O)cc(OCCc4ccc(NC(=O)C(=O)O)c(C#N)c4)cc3o2)cc1` [[(2-cyano-4-{2-[(5-hydroxy-2-{[(4-methoxyphenyl)methyl]carbamoyl}-4-oxo-4H-chromen-7-yl)oxy]ethyl}phenyl)carbamoyl]formic acid] gave a pIC50 of less than 3.75. For `COc1cc(COc2cc(O)c3c(=O)cc(C(=O)O)oc3c2)ccc1NC(=O)C(=O)O` [7-{[4-(formamidoformic acid)-3-methoxyphenyl]methoxy}-5-hydroxy-4-oxo-4H-chromene-2-carboxylic acid], the pIC50 was less than 3.63. Same read-out and setting: next, `COc1ccc(CNC(=O)c2cc(=O)c3c(O)cc(OCCc4ccc(NC(=O)C(=O)O)cc4)cc3o2)cc1` [[(4-{2-[(5-hydroxy-2-{[(4-methoxyphenyl)methyl]carbamoyl}-4-oxo-4H-chromen-7-yl)oxy]ethyl}phenyl)carbamoyl]formic acid]: less than 3.73; `O=C(O)C(=O)Nc1ccc(CCOc2cc(O)c3c(=O)cc(C(=O)O)oc3c2)cc1` [7-{2-[4-(formamidoformic acid)phenyl]ethoxy}-5-hydroxy-4-oxo-4H-chromene-2-carboxylic acid]: less than 3.62; `COc1cc(CCOc2cc(O)c3c(=O)cc(C(=O)O)oc3c2)ccc1NC(=O)C(=O)O` [7-{2-[4-(formamidoformic acid)-3-methoxyphenyl]ethoxy}-5-hydroxy-4-oxo-4H-chromene-2-carboxylic acid]: less than 3.65.

Broadly, the pIC50 is −log10 of the IC50, conventionally taken in molar units. Low readings indicate a large IC50, high ones a small IC50.
